US20260274810A1, “NOVEL MITOFUSIN INHIBITORS” (ALBERT EINSTEIN COLLEGE OF MEDICINE, priority 2023, published 2026)

Columns and labels:
MFN1 and MFN2 = MFN1 and MFN2 gene expression and protein levels; type: cell-based
Description: (§1) Western blot. Western blots were performed from whole cell lysates (WCL) prepared in lysis buffer containing 50 mM Tris-HCl pH 7.5, 1% Triton X-100, 150 mM NaCl, 5 mM MgCl2, 1 mM EGTA and 10% glycerol in the presence of protease inhibitor cocktail (Roche).
(§2) Analysis of mitochondrial biogenesis-related genes by q-PCR. Total RNA was extracted by using RNeasy Mini Kit (Qiagen) followed by cDNA synthesis using the SuperScript IV VILO Master Mix (Thermo Scientific), both performed according to the manufacturer's protocol. q-PCR was performed using the following primers: […]
(§3) For the q-PCR reaction, Power SYBR Green master mix (Thermo Scientific) was used according to the manufacturer's instructions. Briefly, each reaction consisted of 10 ng cDNA, 5 μL Power SYBR Green master mix, 200 nM primers (forward and reverse), and RNase-free water up to 10 μL. q-PCR was performed on the ViiA 7 Real-Time PCR System (Thermo Scientific) with the following cycle parameter: 95° C. for 10 min, 40 cycles of 95° C. for 15 s, and 60° C. for 1 min. q-PCR products were analyzed by melting curves for unspecific products or primer dimer formation.

MEFs [1] = experiment: RNA-seq; type: cell-based, mouse
Source text: RNA-seq. Sequencing results were demultiplexed and converted to FASTQ format using Illumina bcl2fastq software. The sequencing reads were adapter and quality trimmed with Trimmomatic and then aligned to the mouse genome (build mm10/GRCm38) using the splice-aware STAR aligner. The featureCounts program was utilized to generate counts for each gene based on how many aligned reads overlap its exons. These counts were then normalized and used to test for differential expression using negative binomial generalized linear models implemented by the DESeq2 R package.

cells = experiment: Cell death assay (Annexin V / PI); type: cell-based
Description: Cell death assay. Cells (2×10^5 cells/well) were seeded in a 6-well plate and treated with the indicated drugs for 6 hours. Cells were dissociated using Accutase (Thermo Fisher; Cat. #00-4555-56) in order to avoid accidental exposure of phosphatidylserine on the outer plasma membrane. Cell death was evaluated with Dead Cell Apoptosis Kit with Annexin V Alexa Fluor™ 488 & Propidium Iodide (Thermo Fisher; Cat. #V13241) according to manufacturer's protocol. Data was acquired by BD LSRII flow cytometer system using BD FACSDiva software. Data was analyzed by FlowJo (BD).

[2] = test system: Tomm20, mitotracker green, mtDNA/nDNA, mitochondrial biogenesis markers; experiment: Mitochondrial biomass and biogenesis markers; type: cell-based
Description: as §1, with “(Roche). WCL were separated on a 4-12% NuPAGE MES gel (Invitrogen), transferred into a PVDF membrane, block for 1 hr and immunoblot with the corresponding anti-bodies.” for “(Roche).”
as §2
as §3, with “formation. Rpi39 was used as housekeeping gene and 2^−ΔΔCT method was applied to determine the relative mRNAs expression. […]” for “formation.”

U2OS cells [3] = experiment: Mitochondrial fusion in U2OS cells; type: cell-based
Description: Measurement of mitochondrial aspect ratio (Mito AR). Images that depict stained mitochondria with mitotracker green were analyzed using FIJI We measured for each mitochondrion its length and width. Then, we divided the length by the width for each mitochondrion to get its mitochondrial aspect ratio. >200 mitochondria were measured per treatment.

MEFs [4] = experiment: Cytochrome C release; type: cell-based, mouse; conditions: 6 hrs; mitofusin dependent
Description: Cytochrome C release. MEFs were seeded in a […] and grown at ~70% confluence. Following 6 hrs treatment with MFI8, cells were harvested and lysed in digitonin buffer [20 mM Hepes, pH 7.2, 10 mM KCl, 5 mM MgCl2, 1 m MEDTA, 1 mM EGTA, 250 mM sucrose, 0.025% Digitonin (from 5% w/v stock) and complete protease inhibitors (Roche Applied Science)] on ice for 10 min. Then, supernatants were isolated by centrifugation at 15,000×g for 10 min. Mitochondrial pellets solubilized in 1% Triton X-100/PBS for 1 hr at 4° C. Solubilized Pellets were subjected to a 14,000×rpm spin for 10 min. Samples were prepared for western blot analysis and separated by 4-12% NuPage (Life Technologies).

U2OS cells [5] = experiment: Minority MOMP imaging; type: cell-based; conditions: U2OS cells expressing CytoGFP and MitoCherry, 3 h
Description: Minority MOMP. U2OS cells (100,000) were seeded onto glass coverslips and transfected with 250 ng each of CytoGFP and Mito-mCherry as previously described 39. 16 h after transfection, cells were treated with compounds for 3 h and then fixed in 4% paraformaldehyde. Cells were imaged on a Zeiss LSM880 with Airyscan using a 63×1.4 NA objective. Subsequent to acquisition, images were processed using the Airyscan processing function in ZEN software. Minority MOMP was quantified by manually scoring the co-localisation of CytoGFP and mito-mCherry.

SMILES: Cc1cccc(NC(C)c2cc(Cl)ccc2O)c1C (centres unmarked) [MFI8]
- MFN1 and MFN2 gene expression and protein levels (MFN1 and MFN2): neither MASM7 nor MFI8 altered
- genes involved in DNA damage response (MEFs [1]; MEFs): up-regulated several genes that are involved in DNA damage response
- gene expression of subunits of the respiratory complexes (MEFs [1]; RNA-seq): reduced the gene expression of several nuclear-encoded subunits of the respiratory complexes
- sensitization to BV6-induced cell death (cells; combined with BV6): potentiated the capacity of BV6 to induce cell death
- sensitization to BV6-induced cell death (cells; deletion of MFN1/2 and APAF): abolished the capacity of MFI8 to sensitize cells to BV6 treatment
- percentage of dead cells (cells; upon caspase 3/7 activation): did not increase the percentage of dead cells
- gene expression levels of mitochondrial biogenesis markers [2]: no alteration
- Tomm20 protein levels, mitotracker green intensity and mitochondrial to nuclear DNA ratio ([2]; mitochondrial biomass): neither MASM7 nor MFI8 altered
- mitochondrial fusion (U2OS cells [3]): inhibited mitochondrial fusion in U2OS cells
- cytochrome c release to the cytosol (MEFs [4]): cytochrome c was released to the cytosol, albeit at modest levels
- MOMP (U2OS cells [5]): induced MOMP, albeit at modest levels
